Values after ≈ are worked out from the molar mass of the structure shown. Where two headings read alike, the source gives them in different places.
Tests used:
HSV-1 and HSV-2 viruses = test system: HSV-1 and HSV-2 viruses; design: method as in PMID 7932543; conditions: towards HSV-1 and HSV-2 viruses ref 8; cited from earlier work
[1] = Extraction experiments, 1-octanol-water partition coefficient; assay type: physicochemical; conditions: 25 °C, read-out: Partition coefficient 1-octanol–water, P oc/w (converted)
Method: The equipment described above was also used for the determination of the 1-octanol-water partition coefficients. […] The partition coefficient was evaluated as:1 Poc/w=Coc/Cw where C oc and C w are the molar concentrations of the solute in the 1-octanol and water phases, respectively. The correctness of the P oc/w value of each compound was verified by checking the mass balance of the starting amount of the substance and the total amount of the substance partitioned between the two phases.

[2] = Solubility in buffered cyclodextrin solutions (excess method of Higuchi and Connors); assay type: physicochemical; design: Stability constant K s of HP-β-CD complex: unit not given here; conditions: for Correlation parameter a (Eq. 2, Cs = a + b·CCD) / Correlation parameter b (Eq. 2, Cs = a + b·CCD): buffered HP-β-CD solutions; for solubility / solubility at 7 days: thermodynamic from solid, read-out: Solubility, C 6-Ph-O-Me-TACV
Method: Solubilities of the studied compounds was ensured according to the excess method of Higuchi and Connors. […] An excess amount of compounds 4-9 and 11-12 was added to 1.5 mL of aqueous phosphate buffer (concentration of buffer was equal 0.067 mol·dm^-3) solutions, (pH = 5.5 or 7.0) containing various concentration of HP-β-CD. The cyclodextrin concentration changed in the range of 10^-3 to 2 × 10^-2 mol·dm^-3. The suspensions were shaken in screw-capped plastic vials in a water bath thermostat with the volume of 60 dm^3 (home made apparatus by IChF PAN) at 25 and 37 °C. After 7 days equilibrium was reached and then the suspensions were centrifuged and the absorbance of the studied compounds was measured by UV-Vis spectrophotometry using a Shimadzu UV 2401 PC Spectrometer equipped with a thermostatically controlled cell compartment. During the measurement of absorbance, a buffered-solution of HP-β-CD, of the same concentration as in the studied solution, was always put as the reference. The average values of at least three independent determinations of the absorbance were used for calculation of the concentrations of the particular acyclovir derivatives. […] The main reason for the low solubility of tricyclic acyclovir derivatives with aromatic groups in water is the high hydrophobicity of these substituents. Use of cyclodextrins, which can include aromatic groups into their cavity, may enhance the aqueous solubility of such compounds. For this purpose we used several cyclodextrins and hydroxypropyl-β-cyclodextrin was chosen as being more efficient for complexating the tricyclic acyclovir derivatives. The investigations were performed, for chosen compounds, in various cyclodextrin HP-β-CD, buffered solutions (pH = 5.5 and 7.0) at 25 and 37 °C. […] Values of the correlation parameters a and b for tricyclic acyclovir derivatives complexed by cyclodextrin are presented in Table 3. […] The stability constants of the inclusion complexes between HP-β-CD and acyclovir derivatives have been calculated according to the Higuchi-Connors method using:3 K=b/C0(1-b) where C 0 is the solubility of the sample in solutions without cyclodextrin, obtained by determination of saturated solution concentration of acyclovir derivative solutions. […] These two values can differ, but in our study are very close to each other.

[3] = Solubility in water or 1-octanol (saturated solutions, UV-Vis); assay type: physicochemical; conditions: for solubility: thermodynamic from solid, water
Method: The sample of substance examined (10 mg or 80 mg for 6-Me-TACV) was placed in a glass ampoule and double-distilled, deionized water (Millipore, Elix 5 purifier), or pure anhydrous 1-octanol (Sigma 99 %) was added. To attain thermodynamic equilibrium, the solute and the solvent were mixed continuously for a minimum of 4 days at a speed of 25 rpm. After the experiment was completed, the sample was centrifuged at 40,000 rpm for 40 min at 25 ± 0.1 °C, the supernatant liquid was collected, diluted, and its concentration determined with a UV–Vis (Varian Carry IE) spectrophotometer. The experiments were repeated at least three times for each solubility.

[4] = Solubility in buffered cyclodextrin solutions (excess method of Higuchi and Connors); assay type: physicochemical; conditions: phosphate buffer saturated with 1-octanol, aqueous buffer, thermodynamic from solid, pH = 7.0, 37 °C, read-out: Solubility, C 6-Ph-O-Me-TACV

Compound: COc1ccc(-c2cn3c(=O)c4ncn(COCCO)c4nc3[nH]2)cc1 [Compound 11]
- Antiherpetic activity relative to parent acyclovir (concentrations required to reduce virus-induced cytopathicity by 50 %) (HSV-1 and HSV-2 viruses): 2–7 times higher
- logP at 2 days [1]: 0.386
- Correlation parameter a (Eq. 2, Cs = a + b·CCD) ([2]; pH = 5.5, 25 °C): 5.23 × 10^−5
- Correlation parameter b (Eq. 2, Cs = a + b·CCD) ([2]; pH = 5.5, 25 °C): 1.00 × 10^−2
- Correlation parameter a (Eq. 2, Cs = a + b·CCD) ([2]; pH = 5.5, 37 °C): 9.95 × 10^−5
- Correlation parameter b (Eq. 2, Cs = a + b·CCD) ([2]; pH = 5.5, 37 °C): 1.41 × 10^−2
- Correlation parameter a (Eq. 2, Cs = a + b·CCD) ([2]; pH = 7.0, 25 °C): 5.68 × 10^−5
- Correlation parameter b (Eq. 2, Cs = a + b·CCD) ([2]; pH = 7.0, 25 °C): 1.06 × 10^−2
- Correlation parameter a (Eq. 2, Cs = a + b·CCD) ([2]; pH = 7.0, 37 °C): 1.37 × 10^−4
- Correlation parameter b (Eq. 2, Cs = a + b·CCD) ([2]; pH = 7.0, 37 °C): 1.30 × 10^−2
- solubility ([2]; organic solvent or mixture, 1-Octanol saturated with buffer, pH = 5.5, 25 °C): 473 µM (≈ 168 µg/mL)
- solubility ([2]; organic solvent or mixture, 1-Octanol saturated with buffer, pH = 5.5, 37 °C): 741 µM (≈ 263 µg/mL)
- solubility at 7 days ([2]; organic solvent or mixture, 1-Octanol saturated with buffer, pH = 7.0, 25 °C): 485 µM (≈ 172 µg/mL)
- solubility at 7 days ([2]; organic solvent or mixture, 1-Octanol saturated with buffer, pH = 7.0, 37 °C): 882 µM (≈ 313 µg/mL)
- Stability constant K s of HP-β-CD complex ([2]; pH = 5.5, 25 °C): 213 (±6) dm·mol^−1
- Stability constant K s of HP-β-CD complex ([2]; pH = 5.5, 37 °C): 144 (±5)
- Stability constant K s of HP-β-CD complex ([2]; pH = 7, 25 °C): 189 (±6) dm·mol^−1
- Stability constant K s of HP-β-CD complex ([2]; pH = 7, 37 °C): 96 (±4)
- solubility at 7 days ([2]; phosphate buffer saturated with 1-octanol, aqueous buffer, Buffer saturated with 1-octanol, pH = 5.5, 25 °C): 74.2 µM (≈ 26.4 µg/mL)
- solubility at 7 days ([2]; phosphate buffer saturated with 1-octanol, aqueous buffer, Buffer saturated with 1-octanol, pH = 5.5, 37 °C): 127 µM (≈ 45.1 µg/mL)
- solubility at 7 days ([2]; phosphate buffer saturated with 1-octanol, aqueous buffer, Buffer saturated with 1-octanol, pH = 7.0, 25 °C): 58.7 µM (≈ 20.9 µg/mL)
- solubility at 7 days ([2]; phosphate buffer saturated with 1-octanol, aqueous with cosolvent or surfactant or cyclodextrin, Buffer saturated with 1-octanol + HP-β-CD (2 × 10^−2 mol·dm^−3), pH = 5.5, 25 °C): 40.3 µM
- solubility at 7 days ([2]; phosphate buffer saturated with 1-octanol, aqueous with cosolvent or surfactant or cyclodextrin, Buffer saturated with 1-octanol + HP-β-CD (2 × 10^−2 mol·dm^−3), pH = 5.5, 37 °C): 77 µM
- solubility at 7 days ([2]; phosphate buffer saturated with 1-octanol, aqueous with cosolvent or surfactant or cyclodextrin, Buffer saturated with 1-octanol + HP-β-CD (2 × 10^−2 mol·dm^−3), pH = 7.0, 25 °C): 40.3 µM
- solubility at 7 days ([2]; phosphate buffer saturated with 1-octanol, aqueous with cosolvent or surfactant or cyclodextrin, Buffer saturated with 1-octanol + HP-β-CD (2 × 10^−2 mol·dm^−3), pH = 7.0, 37 °C): 80.6 µM
- solubility at 7 days ([2]; phosphate buffer with HP-β-CD, aqueous with cosolvent or surfactant or cyclodextrin, Buffer + HP-β-CD (2 × 10^−2 mol·dm^−3), pH = 5.5, 25 °C): 244 µM
- solubility at 7 days ([2]; phosphate buffer with HP-β-CD, aqueous with cosolvent or surfactant or cyclodextrin, Buffer + HP-β-CD (2 × 10^−2 mol·dm^−3), pH = 5.5, 37 °C): 374 µM
- solubility at 7 days ([2]; phosphate buffer with HP-β-CD, aqueous with cosolvent or surfactant or cyclodextrin, Buffer + HP-β-CD (2 × 10^−2 mol·dm^−3), pH = 7.0, 25 °C): 265 µM
- solubility at 7 days ([2]; phosphate buffer with HP-β-CD, aqueous with cosolvent or surfactant or cyclodextrin, Buffer + HP-β-CD (2 × 10^−2 mol·dm^−3), pH = 7.0, 37 °C): 391 µM
- solubility at 7 days ([2]; phosphate buffer, aqueous buffer, Buffer, pH = 5.5, 25 °C): 48.2 µM (≈ 17.1 µg/mL)
- solubility at 7 days ([2]; phosphate buffer, aqueous buffer, Buffer, pH = 5.5, 37 °C): 99.4 µM (≈ 35.3 µg/mL)
- solubility at 7 days ([2]; phosphate buffer, aqueous buffer, Buffer, pH = 7.0, 25 °C): 55 µM (≈ 19.5 µg/mL)
- solubility at 7 days ([2]; phosphate buffer, aqueous buffer, Buffer, pH = 7.0, 37 °C): 136 µM (≈ 48.3 µg/mL)
- Solubility ratio in 1-octanol and water, C oc/C w ([3]; 25 °C): 7.62
- Solubility ratio in 1-octanol saturated with water and water saturated with 1-octanol, C ocw/C woc ([3]; 25 °C): 2.84
- solubility ([3]; 25 °C (Table 1), read-out: Solubility in water, C w): 53 µM (≈ 18.8 µg/mL)
- solubility ([3]; water saturated with 1-octanol, 25 °C, read-out: Solubility in water saturated with 1-octanol, C woc): 135 µM (≈ 48 µg/mL)
- solubility ([3]; 35 °C, read-out: Aqueous solubility, C w): 144 µM (≈ 51.2 µg/mL)
- solubility ([3]; 45 °C, read-out: Aqueous solubility, C w): 465 µM (≈ 165 µg/mL)
- solubility at 7 days [4]: 139 µM (≈ 49.4 µg/mL)
